# Assay results: Sander's compilation of Henry's law constants (doi:10.1007/bf02268351)
# Test: Henry solubility constant Hcp at 298.15 K (mol/(m3 Pa))
# Conditions: reference: Kolb et al. (1992)
row,SMILES,Henry solubility constant Hcp
1,"CC(Cl)(Cl)Cl [1,1,1-trichloroethane]",0.00079
2,"Cc1ccccc1C [1,2-dimethylbenzene]",0.0014
3,CC(C)O [2-propanol],0.79
4,CC(=O)CC(C)C [4-methyl-2-pentanone],0.043
5,CCCCOC(C)=O [butyl ethanoate],0.023
6,C1CCCCC1 [cyclohexane],5.4e-05
7,CCOC(C)=O [ethyl ethanoate],0.044
8,CCCCCC [hexane],0.00024
9,Cc1ccccc1 [methylbenzene],0.0016
10,ClC(Cl)=C(Cl)Cl [tetrachloroethene],0.00081
